Results reported in doi:10.1101/854513v2 (biorxiv, 2020).
Positions count from the first letter of the chain named. Where two headings read alike, the source gives them in different places.

Assays:
hM4Di [1] = molecular target: T1, hM4Di (Homo sapiens, UniProt P08173, A203G/Y113C); test: BRET G protein dissociation; type: cell-based
T1 sequence (P08173 1-479 Y113C/A203G): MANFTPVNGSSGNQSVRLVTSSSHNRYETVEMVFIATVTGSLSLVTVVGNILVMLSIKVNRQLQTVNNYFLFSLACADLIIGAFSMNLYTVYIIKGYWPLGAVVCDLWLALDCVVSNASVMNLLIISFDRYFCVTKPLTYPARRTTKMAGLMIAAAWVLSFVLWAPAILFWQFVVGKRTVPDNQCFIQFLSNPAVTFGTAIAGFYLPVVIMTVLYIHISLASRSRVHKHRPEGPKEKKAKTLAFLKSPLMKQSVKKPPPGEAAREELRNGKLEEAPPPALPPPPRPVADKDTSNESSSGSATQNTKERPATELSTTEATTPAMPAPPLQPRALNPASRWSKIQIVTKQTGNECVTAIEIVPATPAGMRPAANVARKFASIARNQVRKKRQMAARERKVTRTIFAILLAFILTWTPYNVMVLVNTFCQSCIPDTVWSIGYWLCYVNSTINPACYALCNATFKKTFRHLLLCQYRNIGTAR

hM3Dq [2] = molecular target: T2, hM3Dq (Homo sapiens, UniProt P20309, A239G/Y149C); test: biochemical; type: binding
T2 sequence (P20309 whole entry Y149C/A239G): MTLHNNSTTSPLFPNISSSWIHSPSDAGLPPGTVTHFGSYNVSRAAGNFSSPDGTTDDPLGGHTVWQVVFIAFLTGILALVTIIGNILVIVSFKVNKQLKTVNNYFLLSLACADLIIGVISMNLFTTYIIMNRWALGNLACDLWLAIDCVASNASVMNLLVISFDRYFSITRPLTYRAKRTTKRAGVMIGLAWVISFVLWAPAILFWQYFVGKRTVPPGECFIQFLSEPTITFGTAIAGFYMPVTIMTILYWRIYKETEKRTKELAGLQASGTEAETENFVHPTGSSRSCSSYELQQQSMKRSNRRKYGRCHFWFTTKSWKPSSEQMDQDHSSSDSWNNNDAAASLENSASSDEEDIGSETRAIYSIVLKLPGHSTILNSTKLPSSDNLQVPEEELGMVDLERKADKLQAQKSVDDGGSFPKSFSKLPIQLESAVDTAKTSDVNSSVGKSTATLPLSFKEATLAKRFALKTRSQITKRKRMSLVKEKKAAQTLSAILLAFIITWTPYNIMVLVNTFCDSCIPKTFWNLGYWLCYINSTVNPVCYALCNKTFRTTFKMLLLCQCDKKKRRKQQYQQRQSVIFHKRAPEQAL

hM3 = hM3 (Homo sapiens, UniProt P20309); test: biochemical; type: binding
hM3, sequence (P20309 whole entry): as the sequence (P20309 whole entry Y149C/A239G) above, with C149Y, G239A counted along it

hM3Dq [3] = molecular target: T2, hM3Dq; test: cell-based
hM4 = molecular target: T3, hM4 (Homo sapiens, UniProt P08173); test: [3H]QNB competition binding
T3 sequence (P08173 1-479): T1 sequence (P08173 1-479 Y113C/A203G) with C113Y, G203A

hM4Di [4] = molecular target: T1, hM4Di; test: [3H]QNB competition binding
hM1 = molecular target: T4, hM1 (Homo sapiens, UniProt P11229); test: radioligand competition binding
T4 sequence (P11229 1-460): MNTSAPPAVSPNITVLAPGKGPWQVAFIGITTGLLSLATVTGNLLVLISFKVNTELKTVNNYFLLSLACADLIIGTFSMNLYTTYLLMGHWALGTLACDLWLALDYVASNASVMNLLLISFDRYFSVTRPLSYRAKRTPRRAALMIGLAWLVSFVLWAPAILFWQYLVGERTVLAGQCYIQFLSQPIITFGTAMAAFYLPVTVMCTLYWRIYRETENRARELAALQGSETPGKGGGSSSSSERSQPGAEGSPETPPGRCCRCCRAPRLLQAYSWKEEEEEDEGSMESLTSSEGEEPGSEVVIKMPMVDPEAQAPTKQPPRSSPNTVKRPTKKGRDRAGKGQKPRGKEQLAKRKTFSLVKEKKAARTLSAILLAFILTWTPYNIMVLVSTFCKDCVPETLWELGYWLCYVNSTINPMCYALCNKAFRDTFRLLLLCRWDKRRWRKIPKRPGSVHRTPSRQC

hM5 = molecular target: T5, hM5 (Homo sapiens, UniProt P08912); test: radioligand competition binding
T5 sequence (P08912 1-532): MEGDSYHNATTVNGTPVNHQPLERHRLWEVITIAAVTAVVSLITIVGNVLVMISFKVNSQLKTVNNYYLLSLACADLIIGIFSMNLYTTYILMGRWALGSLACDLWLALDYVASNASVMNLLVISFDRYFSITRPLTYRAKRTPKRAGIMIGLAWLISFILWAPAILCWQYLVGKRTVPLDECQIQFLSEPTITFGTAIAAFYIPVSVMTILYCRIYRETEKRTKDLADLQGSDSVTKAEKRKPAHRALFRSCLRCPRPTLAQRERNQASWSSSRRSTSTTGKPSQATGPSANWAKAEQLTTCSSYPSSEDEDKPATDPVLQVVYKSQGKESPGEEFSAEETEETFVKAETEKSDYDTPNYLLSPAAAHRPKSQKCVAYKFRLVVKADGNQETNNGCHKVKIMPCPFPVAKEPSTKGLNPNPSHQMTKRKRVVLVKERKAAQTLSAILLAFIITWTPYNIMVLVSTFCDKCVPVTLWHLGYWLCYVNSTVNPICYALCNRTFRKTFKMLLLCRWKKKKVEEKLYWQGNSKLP

Structure (SMILES)	EC50 (hM4Di [1])	Ki (hM3Dq [2])	Ki (hM3; HEK293T, [3H]QNB […])	EC50 (hM3Dq [3])	Ki (hM4)	Ki (hM4Di [4])	Ki (hM3)	Ki (hM1)	Ki (hM5)
c1ccc2c(c1)N=C(N1CCNCC1)c1ccccc1N2 [C21]	2.6 nM	850 nM	270 nM	5.2 nM					
C[N+]1([O-])CCN(C2=Nc3cc(Cl)ccc3Nc3ccccc32)CC1 [CNO]	7.3 nM	680 nM		15 nM	3700 nM	360 nM	2600 nM		
CN1CCN(C2=Nc3ccccc3Nc3ccccc32)CC1 [DCZ, 11-(4-methyl-1-piperazinyl)-5H-dibenzo(b,e)(1,4)diazepine]	0.081 nM	6.3 nM		0.13 nM	210 nM	4.2 nM	230 nM	83 nM	55 nM
